Laboratory results taken from patent US20240228468A1, “N-(6-((OCTAHYDROCYCLOPENTA[C]PYRROL-5-YI)AMINO)PYRIDAZIN-3-YL)PHENYL)CARBOXAMIDE AND (6- ((OCTAHYDROCYCLOPENTA[C]PYRROL-5-YL)AMINO)PYRIDAZIN-3-YL)BENZAMIDE DERIVATIVES AS MACHR M4 ANTAGONISTS FOR THE TREATMENT OF NEURODEGENERATIVE DISORDERS” (Vanderbilt University, priority 2021, published 2024).
pIC50: −log10 of the molar value. Like-named read-outs stand apart in the source and are kept apart here.

Molecular target: T1, Human M4 (Homo sapiens, UniProt P08173)
T1 construct: expressed in transfected cells; host or cells: CHO-K1 (ATCC), co-transfected with chimeric G protein Gqi5
T1 sequence (P08173 1-479): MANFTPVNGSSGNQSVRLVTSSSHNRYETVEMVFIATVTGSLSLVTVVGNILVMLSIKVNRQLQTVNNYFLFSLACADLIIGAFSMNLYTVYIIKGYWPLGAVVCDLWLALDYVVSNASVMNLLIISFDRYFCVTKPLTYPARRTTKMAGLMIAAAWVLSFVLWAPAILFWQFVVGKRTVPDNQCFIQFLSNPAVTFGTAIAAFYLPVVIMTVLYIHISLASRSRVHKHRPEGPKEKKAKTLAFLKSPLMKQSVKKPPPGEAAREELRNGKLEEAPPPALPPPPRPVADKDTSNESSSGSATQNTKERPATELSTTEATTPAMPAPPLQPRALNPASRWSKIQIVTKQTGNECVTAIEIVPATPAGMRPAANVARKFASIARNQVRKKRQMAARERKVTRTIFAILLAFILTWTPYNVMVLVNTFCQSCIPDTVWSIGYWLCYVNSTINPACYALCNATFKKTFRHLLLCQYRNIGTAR
Test: mAChR M4 cell-based functional assay (calcium flux, antagonism of EC80 acetylcholine response)
Conditions: for pIC50: concentration-dependent decrease of the response elicited by an EC80 concentration of acetylcholine
Outline: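 CHO-K1 cells stably expressing human M4 with chimeric Gqi5, Fluo-4 loaded; calcium flux read on FDSS. Compound (10-point, 1:3 series) added first, then EC20 acetylcholine at 143 s and EC80 at 268 s. IC50 from concentration-dependent decrease of EC80 response, four-parameter logistic fit.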

[1] = M4/Gqi5/CHO-K1 cells, % ACh maximum at 30 μM, read-out: Human M4 Emin (% ACh maximum at 30 μM)

SMILES	remaining activity at 30 µM [1] [%]	pIC50 (M4/Gqi5/CHO-K1 cells)	Human M4 Emin (% ACh maximum at 30 μM) (M4/Gqi5/CHO-K1 cells, % ACh maximum at 30 μM) [%]	remaining activity at 30 µM (CHO-K1, read-out: Human M4 Emin (% ACh maximum at 30 μM)) [%]
[2H]C([2H])([C@@H]1CCCCO1)N1C[C@H]2C[C@H](Nc3ccc(-c4cc(F)cc(C(=O)NC)c4)nn3)C[C@H]2C1 [Compound A86, 3-fluoro-N-methyl-5-(6-(((3aR,5s,6aS)-2-(((S)-tetrahydro-2H-pyran-2-yl)methyl-d2)octahydrocyclopenta[c]pyrrol-5-yl)amino)pyridazin-3-yl)benzamide]	4	8.57	–	–
[2H]C([2H])(C1CCOCC1)N1C[C@H]2C[C@H](Nc3ccc(-c4ccc(NC(=O)CC)cc4)nn3)C[C@H]2C1 [Compound A40, N-(4-(6-(((3aR,5s,6aS)-2-((tetrahydro-2H-pyran-4-yl)methyl-d2)octahydrocyclopenta[c]pyrrol-5-yl)amino)pyridazin-3-yl)phenyl)propionamide]	3	8.60	–	–
[2H]C([2H])(C1CCOCC1)N1C[C@H]2C[C@H](Nc3ccc(-c4ccc(C(=O)NCC)cc4)nn3)C[C@H]2C1 [Compound A52, N-ethyl-4-(6-(((3aR,5s,6aS)-2-((tetrahydro-2H-pyran-4-yl)methyl-d2)octahydrocyclopenta[c]pyrrol-5-yl)amino)pyridazin-3-yl)benzamide]	5	8.11	–	–
[2H]C([2H])(C1CCOCC1)N1C[C@H]2C[C@H](Nc3ccc(-c4ccc(NC(=O)C5CC5)cc4)nn3)C[C@H]2C1 [Compound A35, N-(4-(6-(((3aR,5s,6aS)-2-((tetrahydro-2H-pyran-4-yl)methyl-d2)octahydrocyclopenta[c]pyrrol-5-yl)amino)pyridazin-3-yl)phenyl)cyclopropanecarboxamide]	4	8.92	–	–
CC(=O)Nc1ccc(-c2ccc(N[C@H]3C[C@@H]4CN(Cc5cccc(F)c5)C[C@@H]4C3)nn2)cc1 [Compound A2, N-(4-(6-(((3aR,5s,6aS)-2-(3-fluorobenzyl)octahydrocyclopenta[c]pyrrol-5-yl)amino)pyridazin-3-yl)phenyl)acetamide]	4	7.29	–	–
[2H]C([2H])([2H])NC(=O)c1cccc(-c2ccc(N[C@H]3C[C@@H]4CN(CC5CCOCC5)C[C@@H]4C3)nn2)c1 (single isomer, unassigned) [Compound A47]	4	8.00	–	–
O=C(Nc1cc(F)c(F)c(-c2ccc(N[C@H]3C[C@@H]4CN(CC5CCOCC5)C[C@@H]4C3)nn2)c1)C1(O)CCC1 [Compound A13, N-(3,4-difluoro-5-(6-(((3aR,5s,6aS)-2-((tetrahydro-2H-pyran-4-yl)methyl)octahydrocyclopenta[c]pyrrol-5-yl)amino)pyridazin-3-yl)phenyl)-1-hydroxycyclobutane-1-carboxamide]	4	7.19	–	–
CCN(CC)C(=O)c1ccc(-c2ccc(N[C@H]3C[C@@H]4CN(CC5CCOCC5)C[C@@H]4C3)nn2)c(F)c1 [Compound A38, N,N-diethyl-3-fluoro-4-(6-(((3aR,5s,6aS)-2-((tetrahydro-2H-pyran-4-yl)methyl)octahydrocyclopenta[c]pyrrol-5-yl)amino)pyridazin-3-yl)benzamide]	4	7.32	–	–
[2H]C([2H])(C1CC(C)(C)OC(C)(C)C1)N1C[C@H]2C[C@H](Nc3ccc(-c4cccc(C(=O)NC)c4)nn3)C[C@H]2C1 [Compound A76, N-methyl-3-(6-(((3aR,5s,6aS)-2-((2,2,6,6-tetramethyltetrahydro-2H-pyran-4-yl)methyl-d2)octahydrocyclopenta[c]pyrrol-5-yl)amino)pyridazin-3-yl)benzamide]	4	7.00	–	–
CCNC(=O)c1ccccc1-c1ccc(N[C@H]2C[C@@H]3CN(CC4CCOCC4)C[C@@H]3C2)nn1 [Compound A58, N-ethyl-2-(6-(((3aR,5s,6aS)-2-((tetrahydro-2H-pyran-4-yl)methyl)octahydrocyclopenta[c]pyrrol-5-yl)amino)pyridazin-3-yl)benzamide]	6	6.70	–	–
[2H]C([2H])(C1CCOCC1)N1C[C@H]2C[C@H](Nc3ccc(-c4ccccc4NC(=O)CC)nn3)C[C@H]2C1 [Compound A50, N-(2-(6-(((3aR,5s,6aS)-2-((tetrahydro-2H-pyran-4-yl)methyl-d2)octahydrocyclopenta[c]pyrrol-5-yl)amino)pyridazin-3-yl)phenyl)propionamide]	4	7.25	–	–
[2H]C([2H])(C1CCOCC1)N1C[C@H]2C[C@H](Nc3ccc(-c4cccc(NC(C)=O)c4)nn3)C[C@H]2C1 [Compound A31, N-(3-(6-(((3aR,5s,6aS)-2-((tetrahydro-2H-pyran-4-yl)methyl-d2)octahydrocyclopenta[c]pyrrol-5-yl)amino)pyridazin-3-yl)phenyl)acetamide]	3	7.96	–	–
O=C(c1ccc(-c2ccc(N[C@H]3C[C@@H]4CN(CC5CCOCC5)C[C@@H]4C3)nn2)cc1)N1CCC(O)C1 (stereo partly drawn) [Compound A25, (3-hydroxypyrrolidin-1-yl)(4-(6-(((3aR,5s,6aS)-2-((tetrahydro-2H-pyran-4-yl)methyl)octahydrocyclopenta[c]pyrrol-5-yl)amino)pyridazin-3-yl)phenyl)methanone]	4	7.60	–	–
[2H]C([2H])(C1CCOCC1)N1C[C@H]2C[C@H](Nc3ccc(-c4cc(F)c(C(=O)NC)c(F)c4F)nn3)C[C@H]2C1 [Compound A66, 2,3,6-trifluoro-N-methyl-4-(6-(((3aR,5s,6aS)-2-((tetrahydro-2H-pyran-4-yl)methyl-d2)octahydrocyclopenta[c]pyrrol-5-yl)amino)pyridazin-3-yl)benzamide]	4	7.80	–	–
[2H]C([2H])([2H])NC(=O)c1cccc(-c2ccc(N[C@H]3C[C@@H]4CN(C([2H])([2H])C5CCOCC5)C[C@@H]4C3)nn2)c1 (single isomer, unassigned) [Compound A49]	3	8.26	–	–
[2H]C([2H])(C1CCOCC1)N1C[C@H]2C[C@H](Nc3ccc(-c4cccc(C(=O)NC5CC5)c4)nn3)C[C@H]2C1 [Compound A33, N-cyclopropyl-3-(6-(((3aR,5s,6aS)-2-((tetrahydro-2H-pyran-4-yl)methyl-d2)octahydrocyclopenta[c]pyrrol-5-yl)amino)pyridazin-3-yl)benzamide]	3	7.66	–	–
[2H]C([2H])([2H])C(=O)Nc1ccc(-c2ccc(N[C@H]3C[C@@H]4CN(C([2H])([2H])C5CCOCC5)C[C@@H]4C3)nn2)cc1 (single isomer, unassigned) [Compound B6]	–	8.92	3	–
[2H]C([2H])(C1CCOC(C)(C)C1)N1C[C@H]2C[C@H](Nc3ccc(-c4cccc(C(=O)NC)c4)nn3)C[C@H]2C1 (stereo partly drawn) [Compound A75, 3-(6-(((3aR,5s,6aS)-2-((2,2-dimethyltetrahydro-2H-pyran-4-yl)methyl-d2)octahydrocyclopenta[c]pyrrol-5-yl)amino)pyridazin-3-yl)-N-methylbenzamide]	3	8.47	–	–
O=C(Nc1cc(F)c(F)c(-c2ccc(N[C@H]3C[C@@H]4CN(CC5CCOCC5)C[C@@H]4C3)nn2)c1)C1CC(F)(F)C1 [Compound A14, N-(3,4-difluoro-5-(6-(((3aR,5s,6aS)-2-((tetrahydro-2H-pyran-4-yl)methyl)octahydrocyclopenta[c]pyrrol-5-yl)amino)pyridazin-3-yl)phenyl)-3,3-difluorocyclobutane-1-carboxamide]	4	6.80	–	–
[2H]C([2H])([C@H]1CCCOC1)N1C[C@H]2C[C@H](Nc3ccc(-c4cccc(C(=O)NC)c4)nn3)C[C@H]2C1 [Compound A78, N-methyl-3-(6-(((3aR,5s,6aS)-2-(((R)-tetrahydro-2H-pyran-3-yl)methyl-d2)octahydrocyclopenta[c]pyrrol-5-yl)amino)pyridazin-3-yl)benzamide]	8	6.24	–	–
[2H]C([2H])([2H])NC(=O)c1ccccc1-c1ccc(N[C@H]2C[C@@H]3CN(C([2H])([2H])C4CCOCC4)C[C@@H]3C2)nn1 [Compound A53, N-(methyl-d3)-2-(6-(((3aR,5s,6aS)-2-((tetrahydro-2H-pyran-4-yl)methyl-d2)octahydrocyclopenta[c]pyrrol-5-yl)amino)pyridazin-3-yl)benzamide]	4	6.70	–	–
O=C(c1ccc(-c2ccc(N[C@H]3C[C@@H]4CN(CC5CCOCC5)C[C@@H]4C3)nn2)cc1)N1CCCC1 [Compound A21, Pyrrolidin-1-yl(4-(6-(((3aR,5s,6aS)-2-((tetrahydro-2H-pyran-4-yl)methyl)octahydrocyclopenta[c]pyrrol-5-yl)amino)pyridazin-3-yl)phenyl)methanone]	–	8.41	–	4
